In US20260166057A1, “1,3,5(10),16-ESTRATETRAEN-3-YL ACETATE FOR USE IN IMPROVING PSYCHOMOTOR OR COGNITIVE PERFORMANCE” (priority 2023, published 2026):
Read-outs that look alike come from different tables or passages of the source.

Experiments:
[1] = system: subjects with peripartum depression; experiment: ETA in peripartum depression (Example 10); format: in vivo, human; conditions: as in Example 4
Protocol: In subjects experiencing decreased psychomotor and/or cognitive performance associated with peripartum depression, a therapeutically effective amount of ETA is administered to the olfactory epithelium as described in Example 4. ETA is administered separately from any other antidepressant therapy and is given sequentially or proximate in time to such other medications. Depressive scores reduce when the subjects are evaluated. Psychomotor and cognitive performance improve in this group of subjects.

[2] = biological target: rat glucocorticoid receptor (Rattus norvegicus, UniProt P06536); experiment: In vitro agonist/antagonist activity on steroid receptors; format: biochemical
healthy male volunteers [3] = experiment: Adverse events in the efficacy study in mentally fatigued men; conditions: ETA nasal spray 1600 ng per administration, all subjects
[4] = system: subjects with excessive daytime sleepiness; experiment: ETA in mental fatigue associated with excessive daytime sleepiness (Example 6); format: in vivo, human; conditions: intranasal as in Example 4
Text: (§1) In subjects experiencing decreased psychomotor and/or cognitive performance in mental fatigue associated with excessive daytime sleepiness, a therapeutically effective amount of ETA is intranasally administered as described in Example 4. Psychomotor and cognitive performance improve in this group of subjects.

[5] = Ames reverse mutation assay; format: cell-based
bone marrow = experiment: In vivo bone marrow micronucleus test
healthy male volunteers [6] = experiment: Time Estimation Test (cognitive performance) of the RTTET in mentally fatigued men; conditions: for Time Estimation test improvement: relative to placebo
[7] = system: subjects with major depressive disorder; experiment: Supplemental ETA with itruvone antidepressant therapy (Example 9); format: in vivo, human; conditions: ETA added to itruvone
Text: Itruvone (INN, pregn-4-en-20-yn-3-one) is being developed for the treatment of MDD and is an investigational product not approved by the Food and Drug Administration. The preparation and experimental treatment of MDD with this compound are described, for example, in Monti, U.S. patent Ser. No. 10/322,138, “Treatment of Depressive Disorders,”. Both itruvone and ETA are believed to have a common mechanism of action in terms of activating olfactory chemosensory neurons in the nasal mucosa, and then activating certain hypothalamic circuits in the brain without brain or systemic uptake. In subjects receiving itruvone treatment for major depressive disorder, ETA is administered to the olfactory epithelium as described in Example 4. […] Cognitive function and psychomotor performance improve in this group of subjects. Because itruvone also is administered to the olfactory epithelium in the form of a spray or aerosol, ETA and itruvone may be administered separately, but proximate in time, or co-formulated for simultaneous intranasal administration.

[8] = system: subjects with shift work sleep disorder; experiment: ETA in mental fatigue associated with shift work sleep disorder (Example 5); format: in vivo, human; conditions: intranasal as in Example 4
Text: as §1, with “shift work sleep disorder,” for “excessive daytime sleepiness,”

[9] = system: subjects with MDD or peripartum depression; experiment: ETA in mental fatigue associated with a depressive disorder (Example 7); format: in vivo, human; conditions: nasal as in Example 4
Text: as §1, with “a depressive disorder such as MDD or peripartum depression,” for “excessive daytime sleepiness,”, “nasally” for “intranasally”, “administered to the olfactory epithelium” for “administered”

[10] = system: nasal septal olfactory chemosensory epithelium; experiment: Electrophysiology: depolarization of chemosensory epithelium; parameters: species or system human
subjects with MDD = experiment: ETA supplementation in MDD subjects already receiving escitalopram (Example 8); format: in vivo, human; conditions: ETA added to escitalopram
Protocol: In subjects experiencing decreased psychomotor and/or cognitive performance in mental fatigue associated with MDD and already receiving treatment with escitalopram, a therapeutically effective amount of ETA is intranasally administered as described in Example 4 as a supplemental or adjunctive treatment. ETA is administered separately from the antidepressant treatment and is given sequentially or proximate in time to situations requiring attention and concentration. […] Psychomotor and cognitive performance improve in this group of subjects.

rats of both sexes = experiment: 7-day intravenous administration to rats of both sexes; format: in vivo
vomeronasal organ = conditions: cited from earlier work
[11] = system: subjects with mild cognitive impairment; experiment: ETA in mild cognitive impairment (Example 12); format: in vivo, human; conditions: intranasal as in Example 4
Protocol: In subjects experiencing decreased psychomotor and/or cognitive performance associated with mild cognitive impairment, a therapeutically effective amount of ETA is administered intranasally as described in Example 4. Psychomotor and cognitive performance improve in this group of subjects.

male rats = experiment: Intravenous and intranasal administration to male rats; format: in vivo; conditions: 600 μg/Kg intravenous, 900 μg/Kg intranasal, 7-day period
healthy male volunteers [12] = experiment: Reaction Time Test (psychomotor performance) of the RTTET in mentally fatigued men; format: in vivo, human; conditions: for number of errors: relative to placebo, all three non-control tests; for variability in Reaction Time test: compared to caffeine and placebo; for effect on Reaction Time test compared with caffeine: midnight and 3 a.m. tests (subjects fatigued)
rat androgen receptor = rat androgen receptor (Rattus norvegicus, UniProt P15207); experiment: In vitro agonist/antagonist activity on steroid receptors; format: biochemical
[13] = system: isolated human nasal olfactory chemosensory neurons; experiment: Electrophysiology: inward currents in isolated chemosensory neurons; format: cell-based
[14] = Onset of effect after nasal administration; format: in vivo, human
Text: Because of the rapid onset of effect of nasally administered ETA, and its safety, it is expected that ETA may be administered as needed once mental fatigue is sensed, for example immediately a mentally fatigued person senses sleepiness or a symptom of sleepiness (such as excessive yawning, closing the eyes, nodding of the head, etc.) or a decline in psychomotor or cognitive performance, to improve psychomotor and cognitive performance under those circumstances. It is also expected that ETA may be administered prophylactically to improve, or at least prevent the normal decline in, psychomotor and/or cognitive performance in persons who are, or are likely to become, mentally fatigued. Thus, for example, a firefighter, whose work schedule may require him or her to be available continuously for 72 hours even though he/she is allowed to sleep at night when not actually needed, might administer ETA to improve psychomotor and/or cognitive performance when awakened at night and called to fight a fire; or a pilot of an overnight flight, who flies the aircraft during an afternoon takeoff, rests during the overnight cruise portion of the flight, but then flies the aircraft again as it approaches and lands the next morning, might administer ETA to improve psychomotor and/or cognitive performance on rising from rest to perform the approach and landing.

healthy male volunteers [15] = conditions: in vivo
rat progestin receptor = rat progestin receptor (Rattus norvegicus, UniProt Q63449); experiment: In vitro agonist/antagonist activity on steroid receptors; format: biochemical
[16] = system: healthy volunteers of both sexes; experiment: Pilot human trials, nasal administration
subjects with ADHD = experiment: ETA in ADHD (Example 11); format: in vivo, human; conditions: intranasal as in Example 4
Protocol: In subjects experiencing decreased psychomotor and/or cognitive performance associated with ADHD, a therapeutically effective amount of ETA is administered intranasally as described in Example 4. Psychomotor and cognitive performance improve in this group of subjects.

rat estrogen receptor = experiment: In vitro agonist/antagonist activity on steroid receptors; format: biochemical
[17] = at night during extended wakefulness; cited from earlier work
mice = conditions: forced swim test in mice; imipramine, desipramine, fluoxetine, paroxetine, escitalopram, reboxetine; cited from earlier work
US adults = conditions: caffeine intake; cited from earlier work
depressed patients = conditions: cited from earlier work
[18] = at certain dosages; cited from earlier work
[19] = adjunctive therapy for acute depressive episodes, unipolar and bipolar; cited from earlier work
[20] = both men and women, more pronounced in men

Sequence of rat androgen receptor (P15207 whole entry S389L): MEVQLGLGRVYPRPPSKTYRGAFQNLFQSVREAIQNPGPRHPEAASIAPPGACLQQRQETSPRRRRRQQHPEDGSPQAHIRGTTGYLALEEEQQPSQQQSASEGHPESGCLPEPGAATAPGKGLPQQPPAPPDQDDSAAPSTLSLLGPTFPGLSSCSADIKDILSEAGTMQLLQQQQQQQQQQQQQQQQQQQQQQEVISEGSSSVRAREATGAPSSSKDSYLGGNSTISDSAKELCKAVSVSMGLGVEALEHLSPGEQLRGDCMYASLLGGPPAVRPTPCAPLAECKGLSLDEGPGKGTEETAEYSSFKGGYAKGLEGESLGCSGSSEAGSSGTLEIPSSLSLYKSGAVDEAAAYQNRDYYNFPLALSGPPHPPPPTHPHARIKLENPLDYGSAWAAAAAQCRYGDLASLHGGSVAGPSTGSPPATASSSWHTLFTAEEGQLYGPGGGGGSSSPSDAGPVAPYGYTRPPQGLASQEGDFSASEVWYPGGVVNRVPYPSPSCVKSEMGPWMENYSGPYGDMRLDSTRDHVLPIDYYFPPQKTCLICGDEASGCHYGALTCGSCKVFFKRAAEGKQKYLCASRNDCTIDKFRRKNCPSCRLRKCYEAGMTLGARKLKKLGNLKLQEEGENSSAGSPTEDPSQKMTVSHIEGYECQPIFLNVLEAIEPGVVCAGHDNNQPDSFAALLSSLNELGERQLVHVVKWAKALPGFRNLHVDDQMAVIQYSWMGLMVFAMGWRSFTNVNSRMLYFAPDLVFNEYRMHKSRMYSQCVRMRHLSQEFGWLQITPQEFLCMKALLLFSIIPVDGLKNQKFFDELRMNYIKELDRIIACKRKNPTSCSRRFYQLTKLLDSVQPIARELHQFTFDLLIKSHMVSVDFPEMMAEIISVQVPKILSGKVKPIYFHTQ
Sequence of rat glucocorticoid receptor (P06536 whole entry): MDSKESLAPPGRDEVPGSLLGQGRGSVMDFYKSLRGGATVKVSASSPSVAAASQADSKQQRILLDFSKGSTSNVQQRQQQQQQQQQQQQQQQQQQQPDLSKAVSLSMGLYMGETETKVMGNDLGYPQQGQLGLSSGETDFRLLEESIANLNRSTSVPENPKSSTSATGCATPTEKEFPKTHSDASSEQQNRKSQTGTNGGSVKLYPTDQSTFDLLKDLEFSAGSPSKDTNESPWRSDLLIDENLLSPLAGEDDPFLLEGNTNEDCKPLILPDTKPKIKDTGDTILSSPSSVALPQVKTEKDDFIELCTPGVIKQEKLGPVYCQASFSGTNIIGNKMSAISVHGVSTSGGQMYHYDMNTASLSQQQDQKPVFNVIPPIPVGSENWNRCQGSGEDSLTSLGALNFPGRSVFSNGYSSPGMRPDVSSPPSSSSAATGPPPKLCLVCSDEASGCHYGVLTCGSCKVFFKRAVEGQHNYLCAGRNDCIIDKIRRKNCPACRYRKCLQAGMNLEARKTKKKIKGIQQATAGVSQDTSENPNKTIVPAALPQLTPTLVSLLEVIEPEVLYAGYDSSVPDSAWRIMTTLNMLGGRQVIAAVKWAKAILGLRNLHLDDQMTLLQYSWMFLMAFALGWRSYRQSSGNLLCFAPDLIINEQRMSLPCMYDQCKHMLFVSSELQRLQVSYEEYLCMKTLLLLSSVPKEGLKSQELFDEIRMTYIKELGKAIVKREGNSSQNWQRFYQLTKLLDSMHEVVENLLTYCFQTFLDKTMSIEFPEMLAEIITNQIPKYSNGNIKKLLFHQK
Sequence of rat progestin receptor (Q63449 whole entry): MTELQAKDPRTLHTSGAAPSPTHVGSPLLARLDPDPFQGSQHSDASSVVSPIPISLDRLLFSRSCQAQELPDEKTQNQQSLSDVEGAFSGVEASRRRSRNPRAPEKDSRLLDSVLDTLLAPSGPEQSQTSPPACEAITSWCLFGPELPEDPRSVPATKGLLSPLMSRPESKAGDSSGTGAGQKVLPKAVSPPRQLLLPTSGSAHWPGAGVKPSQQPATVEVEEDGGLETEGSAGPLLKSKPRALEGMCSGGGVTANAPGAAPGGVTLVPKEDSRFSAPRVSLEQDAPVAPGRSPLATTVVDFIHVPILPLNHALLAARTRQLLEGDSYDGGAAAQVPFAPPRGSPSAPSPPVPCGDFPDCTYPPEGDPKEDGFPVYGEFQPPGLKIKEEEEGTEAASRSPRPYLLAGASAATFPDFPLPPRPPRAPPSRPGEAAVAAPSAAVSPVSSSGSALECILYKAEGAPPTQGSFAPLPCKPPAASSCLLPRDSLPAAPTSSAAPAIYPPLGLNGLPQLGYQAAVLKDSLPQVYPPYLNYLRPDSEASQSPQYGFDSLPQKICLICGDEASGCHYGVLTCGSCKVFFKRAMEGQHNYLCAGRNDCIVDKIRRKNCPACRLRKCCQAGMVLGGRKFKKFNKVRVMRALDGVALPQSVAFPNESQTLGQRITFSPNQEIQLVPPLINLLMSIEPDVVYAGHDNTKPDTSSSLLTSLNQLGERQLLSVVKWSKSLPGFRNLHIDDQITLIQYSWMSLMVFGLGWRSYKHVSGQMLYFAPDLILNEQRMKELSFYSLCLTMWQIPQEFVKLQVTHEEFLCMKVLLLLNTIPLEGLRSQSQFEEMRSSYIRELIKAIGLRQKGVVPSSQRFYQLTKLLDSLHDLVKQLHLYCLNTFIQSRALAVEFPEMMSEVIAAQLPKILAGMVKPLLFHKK

CC(=O)Oc1ccc2c(c1)CC[C@@H]1[C@@H]2CC[C@]2(C)C=CC[C@@H]12 [ETA, 1,3,5(10),16-Estratetraen-3-yl acetate]
depressive scores [1]: reduce | psychomotor and cognitive performance [1]: improve | agonist or antagonist activity [2]: no agonist or antagonist activity | tolerability (healthy male volunteers [3]): well tolerated | psychomotor and cognitive performance [4]: improve | genotoxicity: mutagenic or clastogenic potential [5]: no evidence of mutagenic or clastogenic potential | genotoxicity: mutagenic or clastogenic potential (bone marrow): no evidence of mutagenic or clastogenic potential | Time Estimation test improvement (healthy male volunteers [6]; 3 a.m. test): significantly improved | Time Estimation test improvement relative to caffeine (healthy male volunteers [6]; midnight and 3 a.m. tests, p<0.01): significantly improved | Time Estimation test improvement (healthy male volunteers [6]; midnight test): significantly improved | cognitive function and psychomotor performance [7]: improve | depressive scores [7]: reduce beyond that of itruvone alone | psychomotor and cognitive performance [8]: improve | psychomotor and cognitive performance [9]: improve | electrotonic depolarization [10]: electrotonic depolarization | depressive scores (subjects with MDD): reduce beyond that of the escitalopram alone | psychomotor and cognitive performance (subjects with MDD): improve | mortality, adverse symptoms, changes in behavior (rats of both sexes; 1 mg/day intravenously, rats of both sexes, 7-day period): no mortality or adverse symptoms, or changes in behavior | macroscopic or microscopic changes in organs (rats of both sexes; rat, in vivo, iv): no macroscopic or microscopic changes | change in mass receptor potential (electrovomerogram) (vomeronasal organ; 60 pg dose to the vomeronasal organ, vs control (propylene glycol), men vs women): higher amplitude in men | skin temperature (vomeronasal organ; both men and women, more pronounced in men (FIGS. 6G and 6H)): increase | electrovomerogram (vomeronasal organ; [20]): increase | α-cortical activity (vomeronasal organ; [20]): increase | skin temperature (vomeronasal organ; men, vs control (FIG. 4C)): increase | integrated electrovomerogram (vomeronasal organ; men, vs control): increase | skin resistance (vomeronasal organ; men, vs control): decrease | electrodermal activity (vomeronasal organ; men): decrease | psychomotor and cognitive performance [11]: improve | mortality, adverse symptoms, changes in behavior (male rats): no mortality or adverse symptoms, or changes in behavior | number of errors (healthy male volunteers [12]; isochronous stimuli): significantly decrease | variability in Reaction Time test (healthy male volunteers [12]; isochronous): less variability | effect on Reaction Time test compared with caffeine (healthy male volunteers [12]; isochronous, p<0.001): significantly better than the effect of caffeine | number of errors (healthy male volunteers [12]; stochastic stimuli): significantly decrease | variability in Reaction Time test (healthy male volunteers [12]; stochastic): less variability | effect on Reaction Time test compared with caffeine (healthy male volunteers [12]; stochastic, p<0.0001): significantly better than the effect of caffeine | agonist or antagonist activity (rat androgen receptor): no agonist or antagonist activity | amplitude of the response ([13]; dependence on concentration): increased depending on the concentration of the compound | inward currents in the membrane ([13]; isolated human neurons): induced inward currents | time to improvement in psychomotor and cognitive performance [14]: ≤ 15 min | time to initial physiological response [14]: within a minute | serious adverse events (healthy male volunteers [15]): no serious adverse events | agonist or antagonist activity (rat progestin receptor): no agonist or antagonist activity | alpha frequency band of the electroencephalogram ([16]; intranasal administration): did not have significant effect | beta frequency band of the electroencephalogram ([16]; intranasal administration): did not have significant effect | body temperature ([16]; intranasal administration): did not have significant effect | duration of the QTc intervals of the electrocardiogram ([16]; intranasal administration): did not change | frequency of electrodermal activity events (skin conductance) ([16]; intranasal administration): significantly increased | tolerability ([16]; nasal administration, healthy volunteers): well tolerated | psychomotor and cognitive performance (subjects with ADHD): improve | agonist or antagonist activity (rat estrogen receptor): no agonist or antagonist activity

Cn1c(=O)c2c(ncn2C)n(C)c1=O [caffeine]
Time Estimation test improvement (healthy male volunteers [6]; midnight test): statistically significant | reaction time and cognitive performance [17]: improved | number of errors (healthy male volunteers [12]; isochronous stimuli): significantly decrease | number of errors (healthy male volunteers [12]; stochastic stimuli): significantly decrease | antidepressant-like activity of six typical antidepressants (mice): enhancement | depression symptoms measured by the PHQ-9 test (US adults): reduces depression symptoms | depressive scores (antidepressant action) (depressed patients; chronic supplementation, 60 mg, subjects taking escitalopram): produced rapid antidepressant action by reduction of depressive scores | cognitive performance (depressed patients; low doses, depressed patients): improved

NC(=O)C[S+]([O-])C(c1ccccc1)c1ccccc1 (stereo not shown) [modafinil]
ADHD symptoms [18]: significantly improved | attention [18]: significantly improved | overall depression scores, remission rates and fatigue [19]: improves
